Source: US20250073346A1, “PHARMACEUTICAL COMBINATIONS” (Oxford Bio Therapeutics Ltd, priority 2021, published 2025)

Tests used:
HT-29 cells = assay: Platin after 72 hr LY75_A1 pre-treatment, cell viability (cell-titer glo); assay type: cell-based
Protocol: (§1) Cells were diluted in excess media and spun down. […] The plate was Incubated for 24 hr at 37° C. to allow cells to adhere and become acclimatized prior to addition of drug. The plates were incubated for 72 hr at 37° C. After 72 hr, the media was removed and replaced with either cisplatin or oxaliplatin at various concentrations (see figures) in 100 ul media before incubation for a further 48 hr.
(§2) After the incubation period, the plate was removed from the incubator and left at room temperature for 30 minutes. Media was removed from the plate which was washed twice with 200 ul PBS. The plate was then treated with cell-titer glo (CTG) following the manufacturer's protocol (Promega, Catalog No. G9681). Briefly, 200 ul CTG solution/well was added before incubating at RT on a plate rotator at low speed for 2 min before incubation in the dark for a further 10 min.
(§3) The plates were removed and the viability under the various conditions calculated.

N87 cells = assay: as above; assay type: cell-based; conditions: for reduction of IC50 in cells pre-treated with LY75_A1: pre-treated with LY75_A1 for 72 hours
Protocol: as §1, §2, §3

[1] = tested on: NCI-N87 gastric cancer xenograft; assay: Subcutaneous NCI-N87 gastric cancer xenograft model; assay type: in vivo, mouse
Protocol: The animals were fed ad libitum water (reverse osmosis, 1 ppm CI) and NIH 31 Modified and Irradiated Lab Diet® consisting standard rodent chow. The mice were housed on Crushed corncob bedding, autoclaved; changed weekly on a 12-hour light cycle at 20-22° C. (68-72° F.) and 40-60% humidity.
The NCI-N87 tumor cells were maintained in vitro with RMPI 1640 medium supplemented with 10% fetal bovine serum at 37° C. in an atmosphere of 5% CO2 in air. The cells in exponential growth phase were harvested and quantitated by cell counter before tumor inoculation.
Each mouse was inoculated subcutaneously in the right upper flank region with NCI-N87 tumor cells (1×10^7) in PBS mixed with matrigel (1:1) for tumor development. After tumor inoculation, the animals were checked daily for morbidity and mortality. During routine monitoring, the animals were checked for any effects of tumor growth and treatments on behavior such as mobility, food and water consumption, body weight gain/loss (Body weights would be measured two times per week after randomization), eye/hair matting and any other abnormalities. Mortality and observed clinical signs were recorded for individual animals in detail.
Tumor volumes were measured two times per week after randomization in two dimensions using a caliper, and the volume was expressed in mm3 using the formula: V=(L×W×W)/2, where V is tumor volume, L is tumor length (the longest tumor dimension) and W is tumor width (the longest tumor dimension perpendicular to L). Dosing as well as tumor and body weight measurements were conducted in a Laminar Flow Cabinet.
The randomization started when the mean tumor size reached approximately 183 mm3. […]
Each animal was euthanized for tumor progression (TP) when its tumor reached the […] endpoint. The time to endpoint (TTE) for each mouse was calculated with the following equation: TTE=log (endpoint volume)−b/m. […] Any animal determined to have died from treatment-related (TR) causes was to be assigned a TTE value equal to the day of death. […]
Treatment outcome was evaluated from tumor growth delay (TGD), which was defined as the increase in the median TTE for a treatment group compared to the control group: TGD=T−C expressed in days or as a percentage of the median TTE for the control group % TGD=T−C/C×100 where, T=median TTE for a treatment group, C=median TTE for the control group.
Animals were weighed daily on Days 1-5, and then twice weekly until the end of the study. Group mean BW nadirs were determined before more than 50% of the animals in a group exited the study. The mice were observed frequently for health and overt signs of any adverse TR side effects, and clinical observations were recorded, if observed. […]

HPAFII cells = assay: Platin after 72 hr LY75_A1 pre-treatment, cell viability (cell-titer glo); assay type: cell-based; conditions: for viability of cells: HPAFII, ~50 uM oxaliplatin
Protocol: as §1, §2, §3

[2] = biological target: T1, LY75 (DEC-205), lymphocyte antigen 75 (human, UniProt O60449 28-1722); assay: immunohistochemistry on FFPE human tumour tissue sections
T1 construct: Endogenous LY75 in human tumour tissue sections and on human tumour cell lines
Protocol: (§4) Using the human monoclonal antibodies specific to LY75, immunohistochemistry was performed on FFPE HT-29 and A549 cell pellets, FFPE non-Hodgkin's lymphoma and pancreatic cancer arrays, and fresh frozen lymphoma/leukaemia tumours, ovarian cancer, pancreatic cancer, and breast cancer sections and a normal tissue array.
(§5) The LY75 antigen was retrieved using microwave heat, high power until boiling then low power for 10 minutes in 50 mL 1×citrate buffer in a Coplin jar. Slides were then left to cool to room temperature for a further 15 min, then washed in tap water, 3 minutes. Circles were drawn around each tissue section/TMA with a hydrophobic barrier pen and slides were then washed 3 times in PBS, 3 minutes each wash.
Meanwhile, endogenous tissue peroxidase activity was blocked by incubating tissues with peroxidase suppressor for 5-10 minutes at RT in a humidified chamber. Slides were then washed in PBS 3×3 minutes each wash. Tissues were incubated in SFPB for 30 minutes at room temperature in a humidified chamber. Final staining complexes were applied to each tissue section and/or microarray, and the slides were incubated for 30 min at room temperature in a humidified chamber. Slides were then washed once in PBS and once in PBST (PBS+0.125% Tween-20), 3 minutes each wash. […]

LY75 = biological target: T2, LY75 (Homo sapiens, UniProt O60449); assay: Immunohistochemistry with anti-LY75 antibody on FFPE Triple Negative breast cancer samples
T2 construct: tissue US Biomax Inc. or Origene; host or cells: FFPE triple negative breast cancer tissue sections/arrays
Protocol: as §4
FFPE slides were deparaffinised in xylene (2×3 minutes) then rehydrated through 1:1 xylene: 100% ethanol (1×3 minutes), 100% ethanol (2×3 minutes), 95% ethanol (1×3 minutes), 70% ethanol (1×3 minutes), 50% ethanol (1×3 minutes), and tap water (1×3 minutes).
as §5
The primary anti-LY75 antibody was diluted in serum free protein block (SFPB) to obtain a solution with a concentration 20-fold greater than the final desired concentration (20 μg/mL for 1 μg/mL final). The secondary antibody, goat anti-human immunoglobulin G (IgG) antigen-binding fragment (Fab), was prepared similarly in SFPB to create a solution of equal concentration. […]

[3] = HT29 cells pretreated with 0.5 nM LY75_A1 for 72 hours
[4] = HT29 cells pretreated with 2 nM LY75_A1 for 72 hours
[5] = N87 cells pretreated with 1 nM LY75_A1 for 72 hours
[6] = N87 cells pretreated with 10 nM LY75_A1 for 72 hours
[7] = single agent, single i.v. dose day 1 (OBT076 1 mg/kg; Oxaliplatin 5 mg/kg)

T2 sequence (O60449 28-1722): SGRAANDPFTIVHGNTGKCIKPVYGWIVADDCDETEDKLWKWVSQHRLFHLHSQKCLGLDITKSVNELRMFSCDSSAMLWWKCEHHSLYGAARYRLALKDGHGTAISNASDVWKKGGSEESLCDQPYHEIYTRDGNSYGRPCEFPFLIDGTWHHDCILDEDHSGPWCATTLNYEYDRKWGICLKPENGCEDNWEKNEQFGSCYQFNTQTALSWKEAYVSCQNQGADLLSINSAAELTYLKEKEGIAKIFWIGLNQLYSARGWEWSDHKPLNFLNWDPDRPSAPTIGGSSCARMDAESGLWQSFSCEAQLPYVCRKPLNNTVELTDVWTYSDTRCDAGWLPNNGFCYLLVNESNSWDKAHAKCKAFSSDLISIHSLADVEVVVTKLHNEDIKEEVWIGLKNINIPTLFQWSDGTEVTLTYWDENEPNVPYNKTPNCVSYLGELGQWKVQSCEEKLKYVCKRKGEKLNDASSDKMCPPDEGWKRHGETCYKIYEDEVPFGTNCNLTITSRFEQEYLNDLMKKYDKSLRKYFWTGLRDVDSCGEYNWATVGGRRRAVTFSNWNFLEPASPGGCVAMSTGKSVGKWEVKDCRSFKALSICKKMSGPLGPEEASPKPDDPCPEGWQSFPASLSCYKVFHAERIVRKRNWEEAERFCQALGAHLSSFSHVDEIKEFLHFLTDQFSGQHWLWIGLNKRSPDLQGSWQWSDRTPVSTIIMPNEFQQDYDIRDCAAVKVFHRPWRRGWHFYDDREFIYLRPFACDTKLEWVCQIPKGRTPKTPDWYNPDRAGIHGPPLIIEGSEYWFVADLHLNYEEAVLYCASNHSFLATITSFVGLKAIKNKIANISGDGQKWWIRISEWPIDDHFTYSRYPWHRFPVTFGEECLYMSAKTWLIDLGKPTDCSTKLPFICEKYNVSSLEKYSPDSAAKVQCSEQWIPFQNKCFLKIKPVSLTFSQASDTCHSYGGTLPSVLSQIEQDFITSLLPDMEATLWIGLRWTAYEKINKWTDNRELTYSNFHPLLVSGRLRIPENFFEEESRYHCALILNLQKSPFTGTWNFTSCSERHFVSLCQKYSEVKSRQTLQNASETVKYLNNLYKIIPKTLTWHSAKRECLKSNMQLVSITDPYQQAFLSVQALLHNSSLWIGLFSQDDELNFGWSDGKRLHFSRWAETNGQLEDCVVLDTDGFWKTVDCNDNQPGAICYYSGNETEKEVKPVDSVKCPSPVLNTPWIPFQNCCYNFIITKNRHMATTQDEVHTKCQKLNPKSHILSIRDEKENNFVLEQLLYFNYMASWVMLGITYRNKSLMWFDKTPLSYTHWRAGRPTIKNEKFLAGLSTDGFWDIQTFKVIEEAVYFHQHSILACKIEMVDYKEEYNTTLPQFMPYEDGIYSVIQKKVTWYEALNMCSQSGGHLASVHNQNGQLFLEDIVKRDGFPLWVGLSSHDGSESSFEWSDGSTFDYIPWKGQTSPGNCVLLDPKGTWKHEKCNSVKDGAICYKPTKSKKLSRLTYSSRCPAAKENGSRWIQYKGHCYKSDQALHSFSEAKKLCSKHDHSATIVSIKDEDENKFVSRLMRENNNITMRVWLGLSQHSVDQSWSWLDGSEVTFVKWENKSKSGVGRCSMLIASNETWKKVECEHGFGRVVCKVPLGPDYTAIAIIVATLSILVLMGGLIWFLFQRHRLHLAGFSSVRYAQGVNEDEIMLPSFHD
T1 sequence (O60449 28-1722 limits assumed): as the sequence (O60449 28-1722) above

## N.N.[Cl][Pt][Cl] [Cisplatin, cis-diamminedichloroplatinum(II)]
HT-29 cells; [3]
  IC50: 44.6 µM
HT-29 cells; [4]
  IC50: 18.7 µM
HT-29 cells; HT29 cells, cisplatin alone, 48 hr
  IC50: 44.7 µM
HT-29 cells; HT-29, ~10 uM cisplatin, not pre-treated, FIG. 5B
  viability of cells: no cell death
HT-29 cells; HT-29, ~10 uM cisplatin, pre-treated with 2 nM LY75_A1, FIG. 5B
  viability of cells: significantly lower than those which are not pre-treated
N87 cells; N87, ~3 uM cisplatin, not pre-treated, FIG. 5E
  viability of cells: no cell death
N87 cells; N87, ~3 uM cisplatin, pre-treated with 1 or 10 nM LY75_A1, FIG. 5E
  viability of cells: significantly lower than those which are not pre-treated
N87 cells; [5]
  IC50: 3.5 µM
N87 cells; [6]
  IC50: 0.9 µM
N87 cells; N87 cells, cisplatin alone, 48 hr
  IC50: 10 µM
N87 cells; N87 cells
  reduction of IC50 in cells pre-treated with LY75_A1: 10 fold

## O=C1[O][Pt]2([NH][C@@H]3CCCC[C@H]3[NH]2)[O]C1=O [Oxaliplatin]
[1]; by Day 81, single agent alone
  mice that had died: ~71%
[1]; [7]
  TGI on day 60: 0.49%
  Tumor Size (mm^3) on day 60: 1969.92 +/− 258.93 mm^3
[1]; to Day 81, single agent, single i.v. dose day 1 (OBT076 1 mg/kg; Oxaliplatin 5 mg/kg)
  % Survival: 28.57%
HPAFII cells; HPAFII cells pretreated with 1 nM LY75_A1 for 72 hours
  IC50: 85.4 µM
HPAFII cells; HPAFII cells pretreated with 3 nM LY75_A1 for 72 hours
  IC50: 62.1 µM
HPAFII cells; HPAFII cells pretreated with 10 nM LY75_A1 for 72 hours
  IC50: 58.8 µM
HPAFII cells; HPAFII cells, oxaliplatin alone, 48 hr
  IC50: ~256 µM
HPAFII cells; HPAFII cells, pre-treated with LY75_A1 for 72 hours
  reduction of IC50 in cells pre-treated with LY75_A1: approximately 4 fold
HPAFII cells; not pre-treated, FIG. 5C
  viability of cells: no cell death
HPAFII cells; pre-treated with all concentrations (1, 3, 10 nM) of LY75_A1, FIG. 5C
  viability of cells: significantly lower than those which are not pre-treated
HT-29 cells; [3]
  IC50: 55.1 µM
HT-29 cells; [4]
  IC50: 32.7 µM
HT-29 cells; HT29 cells, oxaliplatin alone, 48 hr
  IC50: 66.8 µM
HT-29 cells; HT-29, ~10 uM oxaliplatin, not pre-treated, FIG. 5A
  viability of cells: no cell death
HT-29 cells; HT-29, ~10 uM oxaliplatin, pre-treated with 2 nM LY75_A1, FIG. 5A
  viability of cells: significantly lower than those which are not pre-treated
N87 cells; N87, ~10 uM oxaliplatin, not pre-treated, FIG. 5D
  viability of cells: no cell death
N87 cells; N87, ~10 uM oxaliplatin, pre-treated with 1 or 10 nM LY75_A1, FIG. 5D
  viability of cells: significantly lower than those which are not pre-treated
N87 cells; [5]
  IC50: 14.1 µM
N87 cells; [6]
  IC50: 1 µM
N87 cells; N87 cells, oxaliplatin alone, 48 hr
  IC50: 44.5 µM
N87 cells; N87 cells
  reduction of IC50 in cells pre-treated with LY75_A1: 44 fold

B1: LY75_A1 monoclonal antibody (antibody, human IgG1, kappa, V domains shown)
VH: EVQLVESGGGLVKPGGSLRLSCAASGFTYSNAWMSWVRQAPGKGLEWVGRIKSKTDGGTTDYAAPVQGRFTISRDDSKNTLYLQMNSLKTEDTAVYYCTIFGVVSFDYWGQGTLVTVSS
VL: DVQMTQSPSSLSASVGDRVTITCRASQSISDYLSWYQQRPGKAPNLLIYAASNLKTGVPSRFSGSGSGTDFTLTISTLQPEDFATYYCQQSYRSPWTFGQGTKVEIKR
notes: Human antibody, detected with goat anti-human IgG Fab in the immunohistochemistry; also called anti-LY75_A1
[2]
  binding result: binds
LY75
  sections exhibited robust (+++) staining: 55%
  sections showed positive staining: 77%
